In patent US11680218B2, “Biodegradable lubricant with tailored hydrolytic stability and improved thermal stability through alkoxylation of glycerol” (Tetramer Technologies, LLC, priority 2018, dated 2023):

Legend:
[1] = Differential scanning calorimetry (melt enthalpy, undercooling, percent solids index); type: physicochemical; settings: DSC, heating from solid, 5° C./min
From the text: It is known in the art that alkoxylation has the potential to decrease the pour point of an ester. However, the current disclosure has observed a surprising decrease in the melting enthalpy and a marked reduction in the degree of undercooling. The degree of undercooling for a base oil indicates the increase in temperature required to fully melt an oil after crystallization has started. The degree of undercooling for the purpose of this disclosure is described as the difference between the temperature at which a material is fully melted on heating and the temperature at which the material begins to crystallize on cooling [Tmelt−Tonset=Undercool] as determined by differential scanning calorimetry (DSC) with a heating and cooling rate of 5° C./min. “Undercooling” and “degree of undercooling” can be used synonymously.
Oils with a lower undercooling require a smaller increase in temperature after crystallization to melt the oil and erase the oil “memory.” Shelby and Miller teach the concept of oil “memory” as a result of gels or crystals not fully dissociating even when above the melt point, so that on a second cooling cycle, gelation or crystal growth occurs much more quickly and at higher temperatures. If two oils have the same crystallization onset temperature, the oil with the lower undercooling will fully melt at a lower temperature and erase the oil “memory”. […] The effect of this is that glycerol esters and polyol esters must be heated substantially above the onset of crystallization in order to melt the oil before use. […] At 5° C. above the onset of crystallization temperature, 100% of Ex. 92 (glycerol ester) is solid; 31% of Ex 93 (PG3 ester) is solid; 18% of Ex. 94 (PG10 ester) is solid; and 81% of Ex 90 (TMP ester) is solid.
Examples 90, 92-94: Reductions in the enthalpy of melting are observed for propoxylated glycerol esters and TMP esters relative to the glycerol ester, see FIG. 19, Table 5, FIG. 20, Table 6 and FIG. 21, Table 7. […] DSC analysis was conducted within the temperature range −80° C. to 40° C. with cyclic cooling and heating rates of 5° C./min. The DSC melt thermograms for each material were integrated as a function of temperature and normalized to the overall melt enthalpy to generate a percent solids index that is the basis for the data in the Solids @ Onset+T columns. The data under Solids @ Onset+5 and +10° C. are indicative of the percent of solids in a base oil when heating from a fully solid or crystalline state. […] Both glycerol and TMP esters show higher degrees of undercooling and higher melt enthalpies compared to analogous propoxylated glycerol esters, see FIG. 20, Table 6.

[2] = literature value, cited from earlier work

CCCCCCCCCCCC(=O)OCC(CC)(COC(=O)CCCCCCCCCCC)COC(=O)CCCCCCCCCCC [Example 90]
percent solid at 5° C. above the onset of crystallization temperature [1]: 81% | percent solid at 10° C. above the crystallization onset temperature [1]: significant amounts of crystalline solids | percent solid at 10° C. above the crystallization onset temperature ([1]; listed as Ex 90): 46%

CCCCCCCC/C=C\CCCCCCCC(=O)OCC(CC)(COC(=O)CCCCCCC/C=C\CCCCCCCC)COC(=O)CCCCCCC/C=C\CCCCCCCC [TMP trioleates]
Oxidative Onset Temperature (OOT) after formulation ([2]; formulated): up to 206 °C | Oxidative Onset Temperature (OOT) ([2]; unformulated): 156 °C

CCCCCCCCCCCC(=O)OCC(COC(=O)CCCCCCCCCCC)OC(=O)CCCCCCCCCCC [Example 92]
percent solid at 5° C. above the onset of crystallization temperature [1]: 100% | percent solid at 10° C. above the crystallization onset temperature [1]: significant amounts of crystalline solids | percent solid at 10° C. above the crystallization onset temperature ([1]; listed as Ex. 92): not melted at all
